In US20240426776A1, “RAPID DIFFERENTIATION OF ANTIBIOTIC-SUSCEPTIBLE AND -RESISTANT BACTERIA THROUGH MEDIATED EXTRACELLULAR ELECTRON TRANSFER” (priority 2021, published 2024):
Converted amounts (≈) assume the structure as drawn. “And” between values parts separate entries of the source, which are not always exact repeats. Equal entries are not always repeated. Where two headings read alike, the source gives them in different places.

Columns and labels:
[1] = tested on: Klebsiella pneumoniae (strains 34 and 115); test: microbe, parasite or virus in culture; conditions: for MIC: Klebsiella pneumoniae, MH media, 16-18 h, 37° C.
Description: (§1) Testing for S. aureus susceptibility to oxacillin differed with incubation at 30° C. for 18-24 h in MH media supplemented with 2% NaCl.
(§2) Values listed in Table 2 below include the estimated minimum inhibitory concentration from this study (μg/mL), the determination of(S) sensitive or (R) resistant microbes according to CLSI criteria, and the CLSI guidelines (μg/mL) for the species being tested. Empty cells were not evaluated.

[2] = tested on: Klebsiella pneumoniae (strains 34 and 115); conditions: for ASIn (antibiotic susceptibility index), single replicates: imipenem 20× breakpoint (80 μg/mL), ASI20, 15 μM PMS, 0.1 OD600
Description: For initial quality control, cyclic voltammetry scan was recorded from 0.5 V to −0.5 V then back to 0.5 V using the potentiostat 13 configuration. The potentiostat controls the working electrode voltage relative to the reference electrode.
For antibiotic susceptibility experiments, the working electrode 6 was controlled at 0 VAg/AgCl. The current can also be measured and analyzed for determining resistance/susceptibility of pathogens to drugs (e.g., antibiotics) using other devices such as a multiplexer or any interface instrument that can receive one or more data inputs and forward it to an output for analysis and feedback. In particular, such one or more data inputs can be directed to a processor, signal processor, computer-based system, etc. and thereafter/correspondingly any such interface instrument can receive instructions from, such processing instruments as better detailed in the description for the embodiment of FIG. 14 below. It is also to be noted that any induced currents undergo a decision methodology that can be interpreted by such a configured processor, signal processor, computer-based system, etc. for aiding in the determination of antibiotic susceptibility/resistance, such as, the methodology better detailed in the description of FIG. 6 below.
Turning back to the discussion for FIG. 1B but also FIG. 1A, an initial baseline was established in the MH media, PMS, and antibiotic mixture for 50-60 min before inoculating the electrochemical cell with a bacteria cell 2. On placing the bacteria cell 2 (again see FIG. 1A) into the electrochemical cell 10, the bacteria cell 2 undergoes metabolic reactions and generates electrons 4 through metabolic processes, as was generally described above. […]
Tests disclosed in the example embodiments herein for the purpose of illustration were conducted with an inoculum of 0.1 OD600. A cell density equating to 0.1 OD600 was determined for each species by serial dilution. […] The colony forming units per mL (CFU/mL) were quantified using a drop plate method as known to those skilled in the art. […]

[3] = tested on: Staphylococcus aureus (strains 29213 and 43300); test: Microdilution antibiotic susceptibility assay (MIC, CLSI guidelines); assay type: cell-based; conditions: for MIC: Staphylococcus aureus, MH media, oxacillin: 30° C., 18-24 h, 2% NaCl, read-out: estimated minimum inhibitory concentration from this study
Description: as §1, §2

[4] = tested on: Escherichia coli (strains 61 and 77); conditions: cited from earlier work

MIC ([3]; strain 29213) [µg/mL]	MIC ([3]; strain 43300) [µg/mL]	Compound	MIC ([1]; read-out: estimated minimum inhibitory concentration from this study, strain 34) [µg/mL]	MIC ([1]; read-out: estimated minimum inhibitory concentration from this study, strain 115) [µg/mL]	sensitive or resistant according to CLSI criteria ([1]; strain 34)	sensitive or resistant according to CLSI criteria ([1]; strain 115)	ASIn (antibiotic susceptibility index), single replicates ([2]; strain 34 (susceptible))	average ASI20 (±SE) ([2]; strain 115 (resistant), imipenem 20× (80 μg/mL))	ASIn (antibiotic susceptibility index), single replicates ([2]; strain 115 (resistant))	sensitive or resistant according to CLSI criteria ([3]; strain 29213)	sensitive or resistant according to CLSI criteria ([3]; strain 43300)	CLSI guidelines (resistance breakpoint) for the species [4] [µg/mL]
–	–	C[C@@H](O)[C@H]1C(=O)N2C(C(=O)O)=C(SCCN=CN)C[C@H]12 [Imipenem, imipenem]	2 (≈ 6.68 µM)	64 (≈ 214 µM)	S	R	0.56 and 0.88 and 0.67 and 0.58	0.28±0.08	0.32 and 0.47 and 0.18 and 0.17	–	–	–
1 (≈ 2.14 µM)	128 (≈ 274 µM)	NC[C@H]1O[C@H](O[C@H]2[C@H](O)[C@@H](O[C@H]3O[C@H](CO)[C@@H](O)[C@H](N)[C@H]3O)[C@H](N)C[C@@H]2N)[C@H](N)C[C@@H]1O [Tobramycin, tobramycin]	–	–	–	–	–	–	–	S	R	16
